Laboratory results published in PubChem BioAssay AID248 (DTP/NCI, 2004).
Values joined by “and” are separate entries in the source; they are usually repeats but may differ in a detail not shown here. Identical values can stand only once. Inconclusive results and toxic doses are left out. No stated cut-off is given here; in the data, active means T/C of 150% or more; inactive means T/C below 125%.

Tested on: L1210 leukemia ip in BDF1 mice, survival T/C
Assay: NCI In Vivo Anticancer Drug Screen. Data for tumor model L1210 Leukemia (intraperitoneal) in B6D2F1 (BDF1) mice
Settings: endpoint: mean survival time, higher = longer survival
Procedure, shortened: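 In this screen, tumor-bearing mice given compound are compared to those given vehicle, and their survival values are reported as a treated-to-control quotient.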

[1] = dose: 100.0 mg/kg/injection, schedule: Q04DX003 (ip), vehicle: saline
[2] = dose: 200.0 mg/kg/injection, schedule: Q04DX003 (ip), vehicle: saline
[3] = dose: 400.0 mg/kg/injection, schedule: Q04DX003 (ip), vehicle: saline
[4] = dose: 50.0 mg/kg/injection, schedule: Q01DX009 (ip), vehicle: Klucel (hydroxypropylcellulose) (HPC)
[5] = dose: 100.0 mg/kg/injection, schedule: Q01DX009 (ip), vehicle: Klucel (hydroxypropylcellulose) (HPC)
[6] = dose: 200.0 mg/kg/injection, schedule: Q01DX009 (ip), vehicle: Klucel (hydroxypropylcellulose) (HPC)

Measured: T/C

Nc1nc2ncc(CN(N=O)c3ccc(C(=O)NC(CCC(=O)O)C(=O)O)cc3)nc2c(=O)[nH]1 (stereo not drawn)
inactive: dose: 0.62 mg/kg/injection, schedule: Q01DX009 (ip), vehicle: water 98 % of control | dose: 1.25 mg/kg/injection, schedule: Q01DX009 (ip), vehicle: water 100 % of control | dose: 2.5 mg/kg/injection, schedule: Q01DX009 (ip), vehicle: water 98 % of control | dose: 5.0 mg/kg/injection, schedule: Q01DX009 (ip), vehicle: water 96 % of control | dose: 10.0 mg/kg/injection, schedule: Q01DX009 (ip), vehicle: water 98 % of control

Nc1ccc(C(=O)N/N=C/c2ccccc2[N+](=O)[O-])cc1
inactive: dose: 12.5 mg/kg/injection, schedule: Q01DX009 (ip), vehicle: other 91 % of control | dose: 25.0 mg/kg/injection, schedule: Q01DX009 (ip), vehicle: other 93 % of control

C=CCN(CC=C)C(=O)Nc1ccc(Cl)c(C(F)(F)F)c1
inactive: dose: 100.0 mg/kg/injection, schedule: Q01DX009 (ip), vehicle: saline with Tween-80 97 % of control | dose: 200.0 mg/kg/injection, schedule: Q01DX009 (ip), vehicle: saline with Tween-80 105 % of control | dose: 400.0 mg/kg/injection, schedule: Q01DX009 (ip), vehicle: saline with Tween-80 110 % of control

CC(C)N=C(N)C(N)=NC(C)C
inactive: dose: 100.0 mg/kg/injection, schedule: Q01DX009 (ip), vehicle: saline 97 % of control | [1] 98 % of control | dose: 200.0 mg/kg/injection, schedule: Q01DX009 (ip), vehicle: saline 92 % of control | [2] 104 % of control | dose: 400.0 mg/kg/injection, schedule: Q01DX009 (ip), vehicle: saline 96 % of control | [3] 96 % of control

COc1ccccc1C(C)=O
inactive: [4] 97 % of control | [5] 100 % of control | [6] 87 % of control

CNC=O
inactive: dose: 32.0 mg/kg/injection, schedule: Q01DX015 (ip), vehicle: saline 94 % of control | dose: 42.87 mg/kg/injection, schedule: Q01DX Z (ip), vehicle: carboxymethylcellulose (CMC) 102 % of control | dose: 42.88 mg/kg/injection, schedule: Q01DX Z (ip), vehicle: carboxymethylcellulose (CMC) 107 % of control | dose: 44.12 mg/kg/injection, schedule: Q01DX Z (ip), vehicle: carboxymethylcellulose (CMC) 98 % of control | dose: 63.0 mg/kg/injection, schedule: Q01DX015 (ip), vehicle: saline 94 % of control | dose: 75.0 mg/kg/injection, schedule: Q01DX009 (ip), vehicle: saline 112 % of control | dose: 85.75 mg/kg/injection, schedule: Q01DX Z (ip), vehicle: carboxymethylcellulose (CMC) 103 % of control and 113 % of control | dose: 125.0 mg/kg/injection, schedule: Q01DX015 (ip), vehicle: saline 102 % of control | dose: 125.0 mg/kg/injection, schedule: Q01DX Z (ip), vehicle: saline 110 % of control | dose: 150.0 mg/kg/injection, schedule: Q01DX009 (ip), vehicle: saline 112 % of control | dose: 150.0 mg/kg/injection, schedule: Q01DX Z (ip), vehicle: saline 114 % of control | dose: 171.5 mg/kg/injection, schedule: Q01DX Z (ip), vehicle: carboxymethylcellulose (CMC) 110 % of control and 115 % of control | dose: 176.5 mg/kg/injection, schedule: Q01DX Z (ip), vehicle: carboxymethylcellulose (CMC) 111 % of control | dose: 225.0 mg/kg/injection, schedule: Q01DX001 (ip), vehicle: saline 101 % of control | dose: 225.0 mg/kg/injection, schedule: Q04DX003 (ip), vehicle: saline 97 % of control | dose: 250.0 mg/kg/injection, schedule: Q01DX015 (ip), vehicle: saline 110 % of control | dose: 300.0 mg/kg/injection, schedule: Q01DX009 (ip), vehicle: saline 121 % of control | dose: 343.0 mg/kg/injection, schedule: Q01DX Z (ip), vehicle: carboxymethylcellulose (CMC) 101 % of control and 118 % of control | dose: 353.0 mg/kg/injection, schedule: Q01DX Z (ip), vehicle: carboxymethylcellulose (CMC) 100 % of control | dose: 450.0 mg/kg/injection, schedule: Q01DX001 (ip), vehicle: saline 97 % of control | dose: 450.0 mg/kg/injection, schedule: Q04DX003 (ip), vehicle: saline 101 % of control | dose: 600.0 mg/kg/injection, schedule: Q01DX Z (ip), vehicle: saline 121 % of control | dose: 900.0 mg/kg/injection, schedule: Q01DX001 (ip), vehicle: saline 95 % of control | dose: 900.0 mg/kg/injection, schedule: Q04DX003 (ip), vehicle: saline 119 % of control | dose: 1000.0 mg/kg/injection, schedule: Q01DX015 (ip), vehicle: saline 105 % of control

O=C1COc2cc(O)c(O)cc21
inactive: dose: 100.0 mg/kg/injection, schedule: Q01DX001 (ip), vehicle: saline 104 % of control | dose: 200.0 mg/kg/injection, schedule: Q01DX001 (ip), vehicle: saline 103 % of control | dose: 400.0 mg/kg/injection, schedule: Q01DX001 (ip), vehicle: saline 104 % of control

CC(=O)Nc1ccc(OCCOC(=O)Nc2ccccc2C(F)(F)F)cc1
inactive: [5] 91 % of control | [6] 105 % of control | dose: 400.0 mg/kg/injection, schedule: Q01DX009 (ip), vehicle: Klucel (hydroxypropylcellulose) (HPC) 93 % of control

COc1ccc(C(Br)C(Br)C(=O)c2ccc3c(c2)OCO3)cc1OC (stereo not drawn)
inactive: [1] 92 % of control | [2] 89 % of control | [3] 98 % of control

O=c1[nH]c(=S)[nH]c2nccnc12
inactive: dose: 16.0 mg/kg/injection, schedule: Q01DX Z (ip), vehicle: methylcellulose (MC) 108 % of control | dose: 31.0 mg/kg/injection, schedule: Q01DX Z (ip), vehicle: methylcellulose (MC) 103 % of control | dose: 62.0 mg/kg/injection, schedule: Q01DX Z (ip), vehicle: methylcellulose (MC) 105 % of control | dose: 125.0 mg/kg/injection, schedule: Q01DX Z (ip), vehicle: methylcellulose (MC) 97 % of control and 106 % of control | dose: 250.0 mg/kg/injection, schedule: Q01DX Z (ip), vehicle: methylcellulose (MC) 97 % of control | dose: 500.0 mg/kg/injection, schedule: Q01DX Z (ip), vehicle: methylcellulose (MC) 106 % of control

CN(C)/N=N/c1ccn[nH]1
inactive: dose: 50.0 mg/kg/injection, schedule: Q01DX005 (ip), vehicle: saline 105 % of control

c1ccc(-c2nnc(-c3ccccc3)o2)cc1
inactive: [4] 95 % of control | [5] 101 % of control | [6] 94 % of control

CCOC(=O)/C(C#N)=C\c1ccc(N(C)C)cc1
inactive: dose: 100.0 mg/kg/injection, schedule: Q01DX Z (ip), vehicle: methylcellulose (MC) 106 % of control | dose: 200.0 mg/kg/injection, schedule: Q01DX Z (ip), vehicle: methylcellulose (MC) 108 % of control

CC(OC(=O)Oc1ccccc1)c1ccccc1 (stereo not drawn)
inactive: dose: 100.0 mg/kg/injection, schedule: Q04DX003 (ip), vehicle: Klucel (hydroxypropylcellulose) (HPC) 98 % of control | dose: 200.0 mg/kg/injection, schedule: Q04DX003 (ip), vehicle: Klucel (hydroxypropylcellulose) (HPC) 107 % of control | dose: 400.0 mg/kg/injection, schedule: Q04DX003 (ip), vehicle: Klucel (hydroxypropylcellulose) (HPC) 98 % of control

COC1OC(COS(=O)OC)C(O)C(O)C1OS(=O)OC (stereo not drawn)
inactive: dose: 100.0 mg/kg/injection, schedule: Q01DX001 (ip), vehicle: carboxymethylcellulose (CMC) 100 % of control | dose: 200.0 mg/kg/injection, schedule: Q01DX001 (ip), vehicle: carboxymethylcellulose (CMC) 97 % of control | dose: 400.0 mg/kg/injection, schedule: Q01DX001 (ip), vehicle: carboxymethylcellulose (CMC) 94 % of control

COc1cccc(NN)c1
inactive: dose: 50.0 mg/kg/injection, schedule: Q01DX009 (ip), vehicle: saline 100 % of control | [1] 101 % of control
